# Tests used:
# [1] = biological target: T1, hNurr1_RXRγFL (NURR-1/RXRγ heterodimer) (Homo sapiens, UniProt P48443); assay: Transactivation assay, NURR-1-Gal4/RXRγ luciferase reporter in Cos-7 cells; format: cell-based; settings: for Emax: COS-7, level of induction relative to XCT0135908 at 2×10^-5 M = 100%, read-out: Eff hNurr1_RXRγFL (efficacy relative to the reference XCT0135908); for EC50: Cos-7 cells, Gal4 luciferase reporter
# T1 construct: EC50 hNurr1_RXRγFL; other: Cos-7 cells, Gal4 luciferase reporter; other: level of induction relative to XCT0135908 at; hNurr1_RXRγFL
# T1 sequence (P48443 whole entry, the tested form may be a part): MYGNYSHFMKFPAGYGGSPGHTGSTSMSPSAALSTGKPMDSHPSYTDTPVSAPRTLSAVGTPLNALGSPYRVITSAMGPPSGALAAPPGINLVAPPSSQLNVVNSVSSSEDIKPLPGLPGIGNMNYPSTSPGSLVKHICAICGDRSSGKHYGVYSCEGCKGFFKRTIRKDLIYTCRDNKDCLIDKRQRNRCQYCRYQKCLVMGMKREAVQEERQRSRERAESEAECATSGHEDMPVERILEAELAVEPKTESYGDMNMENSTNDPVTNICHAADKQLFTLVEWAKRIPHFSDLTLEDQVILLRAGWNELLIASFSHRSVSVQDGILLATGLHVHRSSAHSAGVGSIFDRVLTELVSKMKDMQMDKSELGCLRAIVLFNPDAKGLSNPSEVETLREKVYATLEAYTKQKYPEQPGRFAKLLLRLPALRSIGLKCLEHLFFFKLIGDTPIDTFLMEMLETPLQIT
# T1 sequence (P43354 328-598 partner): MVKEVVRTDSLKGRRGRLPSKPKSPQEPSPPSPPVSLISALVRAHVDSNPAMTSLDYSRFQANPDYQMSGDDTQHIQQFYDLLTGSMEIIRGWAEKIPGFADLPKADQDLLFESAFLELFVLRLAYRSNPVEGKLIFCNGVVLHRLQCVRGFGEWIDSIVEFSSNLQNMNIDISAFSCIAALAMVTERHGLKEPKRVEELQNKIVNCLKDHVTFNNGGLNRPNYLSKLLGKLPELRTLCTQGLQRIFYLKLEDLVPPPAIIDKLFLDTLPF
# Method: (§1) To start with, using an in vitro assay, the capacity of the compounds according to the invention to behave as an activator of the heterodimers formed by the NURR-1 nuclear receptor and the RXR nuclear receptors was measured.
# (§2) A transactivation assay was used as a primary screening test. Cos-7 cells were co-transfected with a plasmid expressing a chimera of the human receptor NURR-1-Gal4, a plasmid expressing the RXR human receptor (RXRα or RXRγ receptor) and a reporter plasmid 5Gal4pGL3-TK-Luc. The transfections were carried out using a chemical agent (Jet PEI).
# (§3) The transfected cells were distributed in 384-well plates and left to stand for 24 hours.
# (§4) After 24 hours, the culture medium was changed. The test products were added (final concentration between 10^−4 and 3.10^−10 M) in the culture medium. After incubation overnight, the expression of luciferase was measured after addition of “SteadyGlo” in accordance with the manufacturer's (Promega) instructions.
# (§5) 4-[[6-Methyl-2-phenyl-5-(2-propenyl)-4-pyrimidinyl]amino]benzoic acid (called XCT0135908) at 2×10^−5 M (RXR agonist) was used as reference.
# (§6) The levels of induction were calculated in relation to the basal activity of each heterodimer. The results were expressed as a percentage of the level of induction relative to the level of induction obtained with the reference (the level of induction of the reference is arbitrarily equal to 100%).
# [2] = biological target: T2, hNurr1_RXRαFL (NURR-1/RXRα heterodimer) (Homo sapiens, UniProt P19793); assay: Transactivation assay, NURR-1-Gal4/RXRα luciferase reporter in Cos-7 cells; format: cell-based; settings: for Emax: COS-7, level of induction relative to XCT0135908 at 2×10^-5 M = 100%, read-out: Eff hNurr1_RXRαFL (efficacy relative to the reference XCT0135908); for EC50: Cos-7 cells, Gal4 luciferase reporter
# T2 construct: hNurr1_RXRαFL
# T2 sequence (P43354 328-598): as the sequence (P43354 328-598 partner) above
# T2 sequence (P19793 whole entry, the tested form may be a part): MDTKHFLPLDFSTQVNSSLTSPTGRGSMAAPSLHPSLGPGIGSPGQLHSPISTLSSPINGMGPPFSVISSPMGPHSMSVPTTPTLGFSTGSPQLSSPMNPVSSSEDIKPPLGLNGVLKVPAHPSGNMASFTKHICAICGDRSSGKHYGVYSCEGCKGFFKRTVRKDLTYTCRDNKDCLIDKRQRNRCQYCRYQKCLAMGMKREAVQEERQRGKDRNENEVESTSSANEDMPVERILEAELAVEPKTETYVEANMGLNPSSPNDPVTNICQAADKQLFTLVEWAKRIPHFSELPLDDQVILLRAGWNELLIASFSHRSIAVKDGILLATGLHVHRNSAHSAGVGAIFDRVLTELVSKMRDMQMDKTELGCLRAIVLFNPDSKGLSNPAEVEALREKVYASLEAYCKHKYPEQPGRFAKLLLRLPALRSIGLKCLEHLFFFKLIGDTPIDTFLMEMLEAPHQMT
# Method: as §1, §2, §3, §4, §5, §6
# [3] = Cerebral and plasma pharmacokinetic profile after oral administration in mice; format: in vivo, male C57Bl6 mouse; settings: oral administration 10 mg/kg in mice; for Kp: male, C57Bl6, mouse, brain/plasma, read-out: Ratio AUCbrain/AUCplasma; for AUCbrain: AUC0-t, up to 8 h
# Method: The protocol used was as follows:
# Male C57Bl6 mice (25-30 g) from Janvier, Le Genest-St-Isle, France, were used for this study (12 mice per dose).
# The animals were fed with standard rodent feed (Purina Mills, St. Louis, Mo.), and were placed in cages and subjected to 12 h/12 h light/dark cycles, the room temperature being maintained at 22±2° C. and the humidity level at 55±10%.
# The mice were not fasted before administration. Water was supplied ad libitum throughout the study.
# The test compound was administered orally at 10 mg/kg.
# For oral administration at 10 mg/kg, the animals were fed by gavage with 10 mL/kg of a suspension of the test compound, prepared in 1% methylcellulose 400 cp.
# The animals were sacrificed under anaesthesia at times 15 min, 30 min, 1 h, 3 h, 6 h and 8 h after gavage.
# At each time, and on each sacrificed animal, the blood was collected and the brain was removed.
# 1 mL of blood collected in 1.5 mL tubes containing 20 μL of evaporated anticoagulant (solution of sodium heparinate at 1000 UI/mL) was centrifuged at 4500 g for 3 min to give approximately 400 μL of plasma. The plasma was divided into 2 aliquots of 200 μL, which were stored at −20° C. until extraction by protein precipitation, followed by analysis by liquid chromatography coupled with tandem mass spectrometry (LC-MS/MS) for the quantification of the test compound.
# Immediately after their removal, the brains were plunged into liquid nitrogen and then stored at −20° C. for analysis. The brains were subsequently ground in the presence of aqueous/organic solvent mixture to give a homogenate. These homogenates were subsequently centrifuged and the test compound was extracted from the resulting supernatant, by liquid-liquid extraction, and then quantified by LC-MS/MS.
# The pharmacokinetic parameters were determined on the basis of a non-compartmental approach in Excel. The area under the curve (AUC0-t) was determined by the linear trapezoidal method.
# [4] = test system: mice treated with 1-methyl-4-phenyl-1,2,3,6-tetrahydropyridine (MPTP); assay: Neuroprotection in MPTP-treated mice, striatal dopamine; format: in vivo, male C57BL6/J mice; settings: oral, twice daily for 11 days; MPTP 20 or 25 mg/kg i.p. for 5 days; FIGS. 1 to 3
# Method: The compound of Example 2 was tested on a model of mice treated with 1-methyl-4-phenyl-1,2,3,6-tetrahydropyridine (MPTP), in order to confirm its potential activity. MPTP is a neurotoxin which gives rise to permanent symptoms of Parkinson's disease by destroying certains neurons in the substantia nigra of the brain. The protocol used was as follows.
# Male C57BL6/J mice, aged 10-12 weeks at the beginning of the studies, were divided into groups of 8 animals. The compound was administered orally and twice daily for 11 days in total. Administration was commenced 3 days before treatment with the MPTP toxin at 20 or 25 mg/kg. MPTP was administered once daily by intraperitoneal injection for 5 days. The administration of the test compound was continued for 3 days after the treatment with MPTP. One group of mice received the vehicle alone (0.5% methylcellulose solution). The animals were euthanized after the final gavage, and the striatum was removed. The dopamine was extracted from the striatum, and the amount of dopamine (DA), expressed in ng per g of striatum (mean±SEM), was measured by high-performance liquid chromatography (HPLC) with electrochemical detection.
# The results obtained were reported in attached FIGS. 1 to 3.
SMILES,Emax [1] [%],EC50 [1] [nM],Emax [2] [%],EC50 [2] [nM],Kp [3],AUCbrain [3],Effect on MPTP-induced reduction of dopamine level in the striatum [4]
"CC(C)c1cccc(S(=O)(=O)n2c(CCCC(=O)O)cc3cc(C(F)(F)F)ccc32)c1 [Example 2, 1-[[3-(1-Methylethyl)phenyl]sulphonyl]-5-(trifluoromethyl)-1H-indole-2-butanoic acid]",79,113,86,73,0.67,3318,"reduce, in a dose-dependent way, the action of MPTP"
"CC(C)(C)c1cccc(S(=O)(=O)n2c(CCCC(=O)O)cc3cc(C(F)(F)F)ccc32)c1 [Example 8, 1-[[3-(1,1-Dimethylethyl)phenyl]sulphonyl]-5-(trifluoromethyl)-1H-indole-2-butanoic acid]",70,20,100,26,0.87,2371,"reduce, in a dose-dependent way, the action of MPTP"
"CC(C)(C)c1cccc(S(=O)(=O)n2c(CCCCC(=O)O)cc3cc(C(F)(F)F)ccc32)c1 [Example 10, 1-[[3-(1,1-Dimethylethyl)phenyl]sulphonyl]-5-(trifluoromethyl)-1H-indole-2-pentanoic acid]",88,77,104,55,0.8,1689,"reduce, in a dose-dependent way, the action of MPTP"

# Reference: US8575210B2, “Use of indole derivatives as NURR-1 activators for treating parkinson's disease” (Laboratoires Fournier SA, priority 2008, dated 2013)
